Assay results published in patent US20220289794A1, “SYNTHETIC ANTIMICROBIAL PEPTIDES” (priority 2019, published 2022).
≈ marks a conversion by molar mass, not a printed value. Where two headings read alike, the source gives them in different places. Blank lines part the entries; values can stand above or below the compound they belong to. Non-standard residues stand in square brackets, D forms with d. Residues, ends and D or L forms follow the SMILES beside them. 2Nal = N[C@@H](Cc1ccc2ccccc2c1)C(=O)O

Experiments:
[1] = test system: Pseudomonas aeruginosa (PSA, ATCC 27883); test: Synergy checkerboard assay (FIC index); assay type: cell-based; conditions: Pseudomonas aeruginosa (ATCC 27883); for MIC (peptide): peptide alone; for FIC (peptide): peptide in combination with antibiotics
[2] = assay type: in vivo; conditions: for Average Body Weight / Average Body Weight Growth Rate: Female (M40~M42)
Description: In-vivo toxicity study of IFX301. 1. Dose formulations were prepared freshly on dosing day. Doses started from the low to high levels and staggered with 4 h up to 24 h between doses with animals. A dose was escalated or decreased if the test compound appears to be generally tolerated well or not. The cage side observation was done twice daily. The clinical observation was conducted prior to randomization and dosing daily thereafter (at least hourly for the first 4 hours after dosing) and prior to termination for mortality, morbidity check, and clinical signs. Bodyweight was monitored prior to randomization and dosing, daily thereafter, and prior to termination. Gross necropsy was done for all scheduled animals on day 8. Full gross necropsy was conducted, this includes a macroscopic examination of the external surface of the body, all orifices, cranial cavity, the external surface of the brain and cut surfaces of the spinal cord, and the cranial, thoracic, abdominal and pelvic cavities and their viscera, cervical areas, carcass, and genitalia; The animal identification and selected tissues (sex appropriate) identified in Table 38 were sampled and preserved in 10% neutral buffered formalin (NBF). For unscheduled animals (found dead and moribund sacrificed animals): gross necropsy was conducted, and tissues were preserved for possible histology to determine the cause of death. Histopathology was done for adrenal glands, brain, cecum, colon, duodenum, heart, ileum, jejunum, kidneys, liver, rectum, spleen, stomach, thymus lung, pancreas and the testis (ovaries); total 16 tissues/mouse.

[3] = test system: Methicillin-resistant Staphylococcus aureus MRSA (ATCC BAA-1556); conditions: ATCC BAA-1556
[4] = test system: Pseudomonas aeruginosa (PSA, ATCC 27883); conditions: ATCC 27883
MRSA (ATCC BAA-1556) = conditions: MRSA (ATCC BAA-1556); for MIC (peptide): peptide alone; for FIC (peptide): peptide in combination with antibiotics
[5] = test system: Klebsiella pneumoniae (KPC, ATCC BAA-1705); conditions: Klebsiella pneumoniae (ATCC BAA-1705); for MIC (peptide): peptide alone; for FIC (peptide): peptide in combination with antibiotics
[6] = test system: Escherichia coli (E. Coli, ATCC 25922); conditions: Escherichia coli (ATCC 25922); for MIC (peptide): peptide alone; for FIC (peptide): peptide in combination with antibiotics
[7] = test system: Methicillin-resistant Staphylococcus aureus MRSA (ATCC BAA-1556); conditions: ATCC BAA-1556; remark: listed apart in the source
human red blood cells = test system: human red blood cells; parameters: unit not given beside the values
[8] = test system: Klebsiella pneumoniae (KPC, ATCC BAA-1705); conditions: ATCC BAA-1705
[9] = test system: Escherichia coli (E. Coli, ATCC 25922); conditions: ATCC 25922
[10] = test system: Pseudomonas aeruginosa (ATCC 27883); conditions: ATCC 27883
[11] = test system: Escherichia coli (ATCC 25922); conditions: ATCC 25922
[12] = test system: Klebsiella pneumoniae (ATCC BAA-1705); conditions: ATCC BAA-1705
[13] = Average, ICR mice, IP, 25 mg/kg, Male (M49~M51)
[14] = Average, ICR mice, IP, 50 mg/kg, Male (M43~M45)
[15] = Female ICR mice, MTD study, IP route, 10 mg/kg & 5 mL/kg, M40~M42
[16] = Female ICR mice, MTD study, IP route, 25 mg/kg & 5 mL/kg, M52~M54
[17] = Female ICR mice, MTD study, IP route, 50 mg/kg & 5 mL/kg, M46~M48
[18] = peptide part of FIC antibiotic/peptides, in combination with antibiotic

SMILES: N=C(N)NCCC[C@@H]1NC(=O)[C@H](CCCNC(=N)N)NC(=O)[C@H](CCCNC(=N)N)NC(=O)[C@H](Cc2c[nH]c3ccccc23)NC(=O)[C@H](Cc2c[nH]c3ccccc23)NC(=O)[C@H](Cc2c[nH]c3ccccc23)NC(=O)[C@H](Cc2c[nH]c3ccccc23)NC(=O)[C@H](CCCNC(=N)N)NC(=O)[C@H](CCCNC(=N)N)NC1=O [IFX-301, [R5W4]]
MIC (peptide) ([1]; Table 25): MIC = 32 ug/ml
FIC (peptide) ([1]; Table 25): FIC = 8 ug/ml
Adrenal glands/Body Coefficient [2, 13]: 0.03%
Heart/Body Coefficient [2, 13]: 0.57%
Kidneys/Body Coefficient [2, 13]: 2.15%
Liver/Body Coefficient [2, 13]: 8.64%
Lung/Body Coefficient [2, 13]: 1.00%
Spleen/Body Coefficient [2, 13]: 0.46%
Testes/Body Coefficient [2, 13]: 0.62%
Thymus/Body Coefficient [2, 13]: 0.31%
Heart/Body Coefficient [2, 14]: 0.49%
Kidneys/Body Coefficient [2, 14]: 2.06%
Liver/Body Coefficient [2, 14]: 8.27%
Lung/Body Coefficient [2, 14]: 0.72%
Spleen/Body Coefficient [2, 14]: 0.68%
Testes/Body Coefficient [2, 14]: 0.69%
Thymus/Body Coefficient [2, 14]: 0.25%
Adrenal glands/Body Coefficient [2, 15]: 0.04%
Average Body Weight before Necropsy [2, 15]: 25 g
Brain/Body Coefficient [2, 15]: 1.77%
Heart/Body Coefficient [2, 15]: 0.51%
Kidneys/Body Coefficient [2, 15]: 1.46%
Liver/Body Coefficient [2, 15]: 6.51%
Lung/Body Coefficient [2, 15]: 0.89%
Ovaries/Body Coefficient [2, 15]: 0.08%
Spleen/Body Coefficient [2, 15]: 0.60%
Thymus/Body Coefficient [2, 15]: 0.48%
Adrenal glands/Body Coefficient [2, 16]: 0.05%
Average Body Weight before Necropsy [2, 16]: 23 g
Heart/Body Coefficient [2, 16]: 0.53%
Kidneys/Body Coefficient [2, 16]: 1.73%
Liver/Body Coefficient [2, 16]: 7.85%
Lung/Body Coefficient [2, 16]: 1.13%
Ovaries/Body Coefficient [2, 16]: 0.09%
Spleen/Body Coefficient [2, 16]: 0.64%
Thymus/Body Coefficient [2, 16]: 0.49%
Adrenal glands/Body Coefficient [2, 17]: 0.03%
Average Body Weight before Necropsy [2, 17]: 21 g
Heart/Body Coefficient [2, 17]: 0.49%
Kidneys/Body Coefficient [2, 17]: 1.84%
Liver/Body Coefficient [2, 17]: 7.82%
Lung/Body Coefficient [2, 17]: 0.75%
Ovaries/Body Coefficient [2, 17]: 0.08%
Spleen/Body Coefficient [2, 17]: 0.81%
Thymus/Body Coefficient [2, 17]: 0.35%
Average Body Weight ([2]; ICR mice, IP, 10 mg/kg, Day 1): 21 g
Average Body Weight ([2]; ICR mice, IP, 10 mg/kg, Day 2): 21 g
Average Body Weight Growth Rate ([2]; ICR mice, IP, 10 mg/kg, Day 2): 3.23%
Average Body Weight ([2]; ICR mice, IP, 10 mg/kg, Day 3): 22 g
Average Body Weight Growth Rate ([2]; ICR mice, IP, 10 mg/kg, Day 3): 4.84%
Average Body Weight ([2]; ICR mice, IP, 10 mg/kg, Day 4): 23 g
Average Body Weight Growth Rate ([2]; ICR mice, IP, 10 mg/kg, Day 4): 11.29%
Average Body Weight ([2]; ICR mice, IP, 10 mg/kg, Day 5): 24 g
Average Body Weight Growth Rate ([2]; ICR mice, IP, 10 mg/kg, Day 5): 16.13%
Average Body Weight ([2]; ICR mice, IP, 10 mg/kg, Day 6): 24 g
Average Body Weight Growth Rate ([2]; ICR mice, IP, 10 mg/kg, Day 6): 16.13%
Average Body Weight ([2]; ICR mice, IP, 10 mg/kg, Day 7): 24 g
Average Body Weight Growth Rate ([2]; ICR mice, IP, 10 mg/kg, Day 7): 17.74%
Average Body Weight ([2]; ICR mice, IP, 10 mg/kg, Day 8): 25 g
Average Body Weight Growth Rate ([2]; ICR mice, IP, 10 mg/kg, Day 8): 20.97%
clinical observation ([2]; mouse, in vivo): did not show any abnormalities
Average Body Weight before Necropsy ([2]; mouse, in vivo, ip, 10 mg/kg): 27 g
Average Body Weight before Necropsy ([2]; mouse, in vivo, ip, 25 mg/kg): 26 g
Average Body Weight before Necropsy ([2]; mouse, in vivo, ip, 50 mg/kg): 26 g
MRSA (ATCC BAA-1556) MIC [3]: 4 µg/mL
Pseudomonas aeruginosa (ATCC 27883) MIC [4]: 32 µg/mL
MIC (peptide) (MRSA (ATCC BAA-1556); Table 25): MIC = 4 ug/ml
FIC (peptide) (MRSA (ATCC BAA-1556); Table 25): FIC = 1 ug/ml
MIC (peptide) ([5]; Table 25): MIC = 32 ug/ml
FIC (peptide) ([5]; Table 25): FIC = 8 ug/ml
MIC (peptide) ([6]; Table 25): MIC = 16 ug/ml
FIC (peptide) ([6]; Table 25): FIC = 4 ug/ml

SMILES: N=C(N)NCCC[C@@H]1NC(=O)[C@H](CCCNC(=N)N)NC(=O)[C@H](CCCNC(=N)N)NC(=O)[C@H](CCCNC(=N)N)NC(=O)[C@H](Cc2c[nH]c3ccccc23)NC(=O)[C@H](Cc2c[nH]c3ccccc23)NC(=O)[C@H](Cc2c[nH]c3ccccc23)NC(=O)[C@H](Cc2c[nH]c3ccccc23)NC(=O)[C@H](CCCNC(=N)N)NC(=O)[C@H](CCCNC(=N)N)NC1=O [IFX-318, [R6W4]] (cyclo(RRRRRRWWWW))
FIC peptides [1, 18]: FIC = 4 ug/ml
Klebsiella pneumoniae (ATCC BAA-1705) MIC [8]: 64 µg/mL
Escherichia coli (ATCC 25922) MIC [9]: 32 µg/mL
FIC peptides (MRSA (ATCC BAA-1556); [18]): FIC = 2 μg/ml
FIC peptides [5, 18]: FIC = 16 μg/ml
FIC peptides [6, 18]: FIC = 8 μg/ml

Continued, in another order:

MIC MRSA ATCC BAA-1556 [7]: 1.5 µg/mL (≈ 1.24 µM)
HC50 (human red blood cells): 350
MRSA (ATCC BAA-1556) MIC [3]: 2 µg/mL
Pseudomonas aeruginosa (ATCC 27883) MIC [4]: 16 µg/mL
Klebsiella pneumoniae (ATCC BAA-1705) MIC [8]: 32 µg/mL
Escherichia coli (ATCC 25922) MIC [9]: 16 µg/mL
SMILES: N=C(N)NCCC[C@@H]1NC(=O)[C@H](CCCNC(=N)N)NC(=O)[C@H](CCCNC(=N)N)NC(=O)[C@H](Cc2c[nH]c3ccccc23)NC(=O)[C@H](Cc2ccc3ccccc3c2)NC(=O)[C@H](Cc2ccc3ccccc3c2)NC(=O)[C@H](CCCNC(=N)N)NC1=O [IFX-031, c[Arg-Arg-Arg-Arg-NaI-NaI-Trp]] (cyclo(RRRR[2Nal][2Nal]W))

MRSA (ATCC BAA-1556) MIC [3]: 4 µg/mL
Pseudomonas aeruginosa (ATCC 27883) MIC [4]: 16 µg/mL
Klebsiella pneumoniae (ATCC BAA-1705) MIC [8]: 32 µg/mL
Escherichia coli (ATCC 25922) MIC [9]: 16 µg/mL
SMILES: N=C(N)NCCC[C@@H]1NC(=O)[C@H](CCCNC(=N)N)NC(=O)[C@H](CCCNC(=N)N)NC(=O)[C@H](CCCCN)NC(=O)[C@H](Cc2c[nH]c3ccccc23)NC(=O)[C@H](Cc2c[nH]c3ccccc23)NC(=O)[C@H](Cc2c[nH]c3ccccc23)NC(=O)[C@H](Cc2c[nH]c3ccccc23)NC(=O)[C@H](CCCNC(=N)N)NC(=O)[C@H](CCCNC(=N)N)NC1=O [[R4W5K] (IFX-315)] (cyclo(RRRRRWWWWK))

MIC (peptide) ([1]; Table 26): MIC = 16 ug/ml
MIC MRSA ATCC BAA-1556 [7]: 4 µg/mL (≈ 2.42 µM)
MIC P. aeruginosa ATCC 27883 [10]: 16 µg/mL (≈ 9.67 µM)
MIC E. coli ATCC 25922 [11]: 16 µg/mL (≈ 9.67 µM)
MIC K. pneumoniae (ATCC BAA-1705) [12]: 32 µg/mL (≈ 19.3 µM)
MRSA (ATCC BAA-1556) MIC [3]: 4 µg/mL
Pseudomonas aeruginosa (ATCC 27883) MIC [4]: 16 µg/mL
Klebsiella pneumoniae (ATCC BAA-1705) MIC [8]: 32 µg/mL
Escherichia coli (ATCC 25922) MIC [9]: 16 µg/mL
MIC (peptide) (MRSA (ATCC BAA-1556); Table 26): MIC = 8 ug/ml
MIC (peptide) ([5]; Table 26): MIC = 64 ug/ml
MIC (peptide) ([6]; Table 26): MIC = 16 ug/ml
SMILES: N=C(N)NCCC[C@@H]1NC(=O)[C@H](CCCNC(=N)N)NC(=O)[C@H](CCCNC(=N)N)NC(=O)[C@H](CCCCN)NC(=O)[C@H](Cc2c[nH]c3ccccc23)NC(=O)[C@H](Cc2c[nH]c3ccccc23)NC(=O)[C@H](Cc2c[nH]c3ccccc23)NC(=O)[C@H](Cc2c[nH]c3ccccc23)NC(=O)[C@H](CCCNC(=N)N)NC(=O)[C@H](CCCNC(=N)N)NC1=O [IFX-315, [R5W4K]] (cyclo(RRRRRWWWWK))
FIC (peptide) ([1]; Table 26): FIC = 4 ug/ml
FIC (peptide) (MRSA (ATCC BAA-1556); Table 26): FIC = 2 ug/ml
FIC (peptide) ([5]; Table 26): FIC = 16 ug/ml
FIC (peptide) ([6]; Table 26): FIC = 4 ug/ml
